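Method: 48-hour compound exposure of cells in 96-well plates, five concentrations, linear interpolation of endpoints. GI50 = concentration required for 50% inhibition of growth.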 The source made the active and inactive calls. Cut-off read from the data, not from the text of the source: active = GI50 up to about 1.1 µM and inactive = higher.
Key:
Test in all cases: NCI anticancer screen, dose series, 48 h
UACC-257 = test system: UACC-257
IGROV-1 = test system: IGROV-1
KM12 = test system: KM12
HOP-62 = test system: HOP-62
HT-29 = test system: HT-29
NCI-H23 = test system: NCI-H23
OVCAR-3 = test system: OVCAR-3
NCI-H522 = test system: NCI-H522
786-0 = test system: 786-0
SNB-19 = test system: SNB-19
BT-549 = test system: BT-549
SK-MEL-5 = test system: SK-MEL-5
SK-MEL-2 = test system: SK-MEL-2
RXF 393 = test system: RXF 393
HOP-92 = test system: HOP-92
SF-295 = test system: SF-295
UACC-62 = test system: UACC-62
CAKI-1 = test system: CAKI-1
A549 = test system: A549

Measured: GI50

CCOC(=O)CCc1c(C(=O)OCC)[nH]c(/C=C2/NC(=O)C(C)=C2CC)c1C
inactive: UACC-257 10.1 µM | IGROV-1 8.38 µM | KM12 10.9 µM | HOP-62 15 µM | HT-29 10.4 µM | NCI-H23 2.24 µM | OVCAR-3 3.88 µM | NCI-H522 11.7 µM | 786-0 15.8 µM | SNB-19 13.1 µM | BT-549 1.61 µM | SK-MEL-5 2.97 µM | SK-MEL-2 18.3 µM | RXF 393 11.1 µM | HOP-92 14.1 µM | SF-295 11.6 µM | UACC-62 4.9 µM | CAKI-1 21.2 µM | A549 24.3 µM

CC(C)[Si]1(C(C)C)OCC2OC(n3c(C(=O)c4ccccc4)cc(=O)[nH]c3=O)CC2O[Si](C(C)C)(C(C)C)O1 (stereo not given)
inactive: UACC-257 2.34 µM | IGROV-1 3.28 µM | KM12 2.31 µM | HOP-62 7.03 µM | HT-29 1.9 µM | NCI-H23 2.52 µM | OVCAR-3 2.08 µM | NCI-H522 1.7 µM | 786-0 3.05 µM | SNB-19 7.71 µM | BT-549 4.69 µM | SK-MEL-5 4.37 µM | SK-MEL-2 5.05 µM | RXF 393 2.54 µM | HOP-92 2.33 µM | SF-295 3.78 µM | UACC-62 2.81 µM | CAKI-1 5.53 µM | A549 7.28 µM

N#CC12C(=O)N3C(=NC(c4ccccc4)NC3c3ccccc3)C1(C#N)C(c1ccccc1)NC1=C2CCC1 (stereo not given)
inactive: UACC-257 > 100 µM | IGROV-1 > 100 µM | KM12 > 100 µM | HOP-62 > 100 µM | HT-29 > 100 µM | NCI-H23 > 100 µM | OVCAR-3 > 100 µM | NCI-H522 > 100 µM | 786-0 > 100 µM | SNB-19 > 100 µM | BT-549 > 100 µM | SK-MEL-5 > 100 µM | SK-MEL-2 > 100 µM | RXF 393 > 100 µM | HOP-92 > 100 µM | SF-295 > 100 µM | UACC-62 > 100 µM | CAKI-1 > 100 µM | A549 > 100 µM

COP(=O)(CC(=O)C1OC(OCc2ccccc2)C(OCc2ccccc2)C(OCc2ccccc2)C1OCc1ccccc1)OC (stereo not given)
inactive: UACC-257 6.81 µM | IGROV-1 13.3 µM | KM12 4.16 µM | HOP-62 20.1 µM | HT-29 6.19 µM | NCI-H23 8.47 µM | OVCAR-3 8.87 µM | NCI-H522 9.51 µM | 786-0 12.5 µM | SNB-19 11.4 µM | BT-549 17.4 µM | SK-MEL-5 4.23 µM | SK-MEL-2 3.22 µM | RXF 393 2.62 µM | HOP-92 10.4 µM | SF-295 5.36 µM | UACC-62 4.12 µM | CAKI-1 4.7 µM | A549 5.57 µM

C=C1C(=O)OC2C1CCC(=C)C1CC(O)C(=C)C12 (stereo not given)
inactive: UACC-257 12.9 µM | IGROV-1 14 µM | KM12 13.7 µM | HOP-62 21.2 µM | HT-29 5.57 µM | NCI-H23 18.7 µM | OVCAR-3 13.3 µM | NCI-H522 2.58 µM | 786-0 5.5 µM | SNB-19 23.8 µM | BT-549 15.3 µM | SK-MEL-5 14.3 µM | SK-MEL-2 14.3 µM | RXF 393 13.1 µM | HOP-92 3.21 µM | SF-295 38.5 µM | UACC-62 13.5 µM | CAKI-1 4.28 µM | A549 23.8 µM

CCCNC(=O)Cn1c(C)cc2ccccc21
inactive: UACC-257 > 100 µM | IGROV-1 > 100 µM | KM12 > 100 µM | HOP-62 > 100 µM | HT-29 > 100 µM | NCI-H23 > 100 µM | OVCAR-3 > 100 µM | NCI-H522 > 100 µM | 786-0 > 100 µM | SNB-19 > 100 µM | BT-549 > 100 µM | SK-MEL-5 > 100 µM | SK-MEL-2 > 100 µM | RXF 393 > 100 µM | HOP-92 > 100 µM | SF-295 > 10 µM | UACC-62 > 100 µM | CAKI-1 > 100 µM | A549 > 100 µM

COc1cccc(C2c3cc4c(cc3OC(NNS(=O)(=O)c3ccc(C)cc3)C2C)OCO4)c1OC (stereo not given)
inactive: UACC-257 2.7 µM | IGROV-1 2.52 µM | KM12 3.3 µM | HOP-62 2.84 µM | HT-29 3.18 µM | NCI-H23 4.06 µM | OVCAR-3 1.75 µM | NCI-H522 1.88 µM | 786-0 22.2 µM | SNB-19 3.59 µM | BT-549 2.2 µM | SK-MEL-5 2.83 µM | SK-MEL-2 2.31 µM | RXF 393 2.12 µM | HOP-92 2.15 µM | SF-295 2.9 µM | UACC-62 3.75 µM | CAKI-1 2.29 µM | A549 2.62 µM

N#Cc1c(N)c(-c2ccc(Cl)cc2)c(F)c2ccccc12
inactive: UACC-257 > 100 µM | IGROV-1 > 100 µM | KM12 > 100 µM | HOP-62 > 100 µM | HT-29 75.5 µM | NCI-H23 > 100 µM | OVCAR-3 > 100 µM | NCI-H522 > 100 µM | 786-0 > 100 µM | SNB-19 > 100 µM | BT-549 > 100 µM | SK-MEL-5 > 100 µM | SK-MEL-2 > 100 µM | RXF 393 18.8 µM | HOP-92 3.98 µM | SF-295 > 100 µM | UACC-62 > 100 µM | CAKI-1 > 100 µM | A549 > 100 µM

C[n+]1c(-c2ccc(/C=N/NC(=O)c3ccc(C(=O)N/N=C/c4ccc(-c5cn6ccccc6[n+]5C)cc4)cc3)cc2)cn2ccccc21
inactive: UACC-257 > 63.7 µM | IGROV-1 > 100 µM | KM12 > 100 µM | HOP-62 > 100 µM | HT-29 > 100 µM | NCI-H23 > 100 µM | OVCAR-3 > 100 µM | NCI-H522 > 100 µM | 786-0 13.9 µM | SNB-19 > 100 µM | BT-549 > 100 µM | SK-MEL-5 > 67.9 µM | SK-MEL-2 > 100 µM | RXF 393 > 61.9 µM | HOP-92 > 100 µM | SF-295 > 100 µM | UACC-62 > 81.8 µM | CAKI-1 > 72.9 µM | A549 > 100 µM

O=c1c(Cc2ccccc2Cc2c(O)oc3ccccc3c2=O)c(O)oc2ccccc12
inactive: UACC-257 > 100 µM | IGROV-1 > 100 µM | KM12 > 100 µM | HOP-62 > 100 µM | HT-29 > 100 µM | NCI-H23 > 100 µM | OVCAR-3 > 100 µM | NCI-H522 > 100 µM | 786-0 > 100 µM | SNB-19 > 100 µM | BT-549 > 100 µM | SK-MEL-5 > 100 µM | SK-MEL-2 > 100 µM | RXF 393 > 100 µM | HOP-92 > 100 µM | SF-295 > 100 µM | UACC-62 > 100 µM | CAKI-1 > 100 µM | A549 > 100 µM
